Test results reported in ChEMBL document CHEMBL1124763, “Nucleoside conjugates. 11. Synthesis and antitumor activity of 1-beta-D-arabinofuranosylcytosine and cytidine conjugates of thioether lipids” (1990).

Tests used:
Mus musculus [1] = assay: Range of survival days for antitumor activity against Ip implanted L1210 / 0 lymphoid leukemia in mice at a dose of 200 mg/kg per day after treatment 1;range is 24->45; format: functional; details: route intraperitoneal
Mus musculus [2] = assay: Increase of life span was determined against Ip implanted L1210 / 0 lymphoid leukemia in mice at a dose of 100 mg/kg per day after treatment 1,5,9; format: functional; details: L1210/0, ip, route intraperitoneal
Mus musculus [3] = assay: Range of survival days for antitumor activity against Ip implanted L1210 / 0 lymphoid leukemia in mice at a dose of 400 mg/kg per day after treatment 1;range is 9->45; format: functional; details: route intraperitoneal
Mus musculus [4] = assay: Range of survival days for antitumor activity against Ip implanted L1210 / 0 lymphoid leukemia in mice at a dose of 100 mg/kg per day after treatment 1,5,9;range is 18-29; format: functional; details: route intraperitoneal
Mus musculus [5] = assay: Increase of life span was determined against Ip implanted L1210 / 0 lymphoid leukemia in mice at a dose of 60 mg/kg per day after treatment 1-5; format: functional; details: L1210/0, ip, route intraperitoneal
Mus musculus [6] = assay: Survival time of treated mice for antitumor activity against Ip implanted L1210 / 0 lymphoid leukemia in mice at a dose of 100 mg/kg per day after treatment 1,5,9;25/8; details: route intraperitoneal
Mus musculus [7] = assay: Survival time treated for antitumor activity against Ip implanted L1210 / 0 lymphoid leukemia in mice at a dose of 200 mg/kg per day after treatment 1,8,15,22;24.5/7; details: route intraperitoneal
Mus musculus [8] = assay: Survival time treated for antitumor activity against Ip implanted L1210 / 0 lymphoid leukemia in mice at a dose of 400 mg/kg per day;>42.5/7; details: route intraperitoneal
Mus musculus [9] = assay: Increase of life span was determined against Ip implanted L1210 / 0 lymphoid leukemia in mice at a dose of 300 mg/kg per day after treatment 1; format: functional; details: L1210/0, ip, route intraperitoneal
Mus musculus [10] = assay: Range of survival days for antitumor activity against Ip implanted L1210 / ara-C (I) lymphoid leukemia in mice at a dose of 400 mg/kg per day; format: functional; details: route intraperitoneal
Mus musculus [11] = assay: Survival time treated for antitumor activity against Ip implanted L1210 / 0 lymphoid leukemia in mice at a dose of 300 mg/kg per day after treatment 1;33/7; details: route intraperitoneal
Mus musculus [12] = assay: Survival time treated for antitumor activity against Ip implanted L1210 / 0 lymphoid leukemia in mice at a dose of 100 mg/kg per day after treatment 1,8,15,22;24/7; details: route intraperitoneal
Mus musculus [13] = assay: Increase of life span was determined against Ip implanted L1210 / ara-C (I) lymphoid leukemia in mice at a dose of 80 mg/kg per day; format: functional; details: route intraperitoneal
Mus musculus [14] = assay: Survival time treated for antitumor activity against Ip implanted L1210 / 0 lymphoid leukemia in mice at a dose of 200 mg/kg per day after treatment 1;32/7; details: route intraperitoneal
Mus musculus [15] = assay: Median survival time for antitumor activity against Ip implanted L1210 / ara-C (I) lymphoid leukemia in mice at a dose of 133 mg/kg per day; details: route intraperitoneal
Mus musculus [16] = assay: Range of survival days for antitumor activity against Ip implanted L1210 / 0 lymphoid leukemia in mice at a dose of 400 mg/kg per day after treatment 2;range is 12-26; format: functional; details: route intraperitoneal
Mus musculus [17] = assay: Survival time treated for antitumor activity against Ip implanted L1210 / 0 lymphoid leukemia in mice at a dose of 200 mg/kg per day after treatment 5;15/7; details: route intraperitoneal
Mus musculus [18] = assay: Survival time treated for antitumor activity against Ip implanted L1210 / 0 lymphoid leukemia in mice at a dose of 60 mg/kg per day after treatment 1-5;31/8; details: route intraperitoneal
Mus musculus [19] = assay: Increase of life span was determined against Ip implanted L1210 / 0 lymphoid leukemia in mice at a dose of 200 mg/kg per day after treatment 1,15; format: functional; details: L1210/0, ip, route intraperitoneal

Structure (SMILES): CCCCCCCCCCCCCCCCCCSCC(COP(=O)(O)OP(=O)(O)OC[C@H]1O[C@@H](n2ccc(N)nc2=O)[C@@H](O)[C@@H]1O)OC(=O)CCCCCCCCCCCCCCC (mixture of isomers)
- Range of survival days (Mus musculus [1]): >24
- ILS at 100 mg/kg/day (Mus musculus [2]): 213%
- Range of survival days (Mus musculus [3]): >9
- Range of survival days (Mus musculus [4]): 18
- ILS at 60 mg/kg/day (Mus musculus [5]): 288%
- survival time (Mus musculus [6]): 25 days
- survival time (Mus musculus [7]): 24.5 days
- survival time (Mus musculus [8]): > 42.5 days
- ILS at 300 mg/kg/day (Mus musculus [9]): 371%
- Range (Mus musculus [10]): >45
- survival time (Mus musculus [11]): 33 days
- survival time (Mus musculus [12]): 24 days
- ILS at 80 mg/kg/day (Mus musculus [13]): > 350%
- survival time (Mus musculus [14]): 32 days
- median survival time (Mus musculus [15]): > 45 days
- Range of survival days (Mus musculus [16]): 12
- survival time (Mus musculus [17]): 15 days
- survival time (Mus musculus [18]): 31 days
- ILS at 200 mg/kg/day (Mus musculus [19]): 293%
